Data published in patent publication US10080366B2, “Agent for increasing sugar content in fruit” (RIKEN, priority 2012, dated 2018).

Columns and labels:
[1] = system: clusters of grape (variety: Crimson); experiment: Estimated transpiration ratio of grape clusters (Example 9); type: in vivo; conditions: 10 g/L; 8 days after treatment
[2] = system: Grape (fruit: Cabernet Sauvignon); conditions: 10 g/L, three times at intervals of one week
Description: (§1) To each of the plants shown in Table 16 below, an aqueous potassium hydrogen carbonate solution (5 g/L for lettuce and 10 g/L for the other plants) was applied three times at intervals of one week from one month before the harvest. The plants were harvested three weeks after the start of the application. Untreated plants not treated with the aqueous potassium hydrogen carbonate solution were harvested at the same time. After the harvest, the total amount of amino acids in each sample was determined, and the ratio of the total amount of amino acids in the plant treated with potassium hydrogen carbonate to the total amount of amino acids in the untreated plant was determined.

[3] = system: Rice plant (grains: Nipponbare); conditions: 10 g/L, three times at intervals of one week
Description: as §1

Tomato (fruit: Regina) = conditions: 10 g/L, three times at intervals of one week
Description: as §1

[4] = system: Lettuce (leaves: Great Lakes); conditions: 5 g/L, three times at intervals of one week
Description: as §1

[5] = system: Wheat (grains: Norin No. 61); conditions: 10 g/L, three times at intervals of one week
Description: as §1

Cherry (Sato Nishiki) = conditions: 5 g/L, three times at intervals of 7 days; 28 days after first application
Description: The water-soaked symptom in cherry is known to be caused by calcium deficiency. In this respect, an investigation was made as to whether or not the degree of occurrence of water-soaked symptom 28 days after the date of the first application was different between untreated cherries and cherries to which an aqueous potassium hydrogen carbonate solution (5 g/L) was applied three times at intervals of 7 days one month before the harvest time. […] The occurrence (%) of water-soaked symptom=the number of cherries in which the water-soaked symptom occurred/the number of cherries tested×100

Structure (SMILES): O=C([O-])O.[K+] [Potassium hydrogen carbonate, potassium hydrogen carbonate]
- Estimated transpiration ratio (%) Average [1]: 31%
- Estimated transpiration ratio (%) First [1]: 33%
- Estimated transpiration ratio (%) Second [1]: 28%
- Amino acid concentration ratio (treated/untreated) [2]: 2.2
- Amino acid concentration ratio (treated/untreated) [3]: 1.2
- Amino acid concentration ratio (treated/untreated) (Tomato (fruit: Regina)): 1.8
- Amino acid concentration ratio (treated/untreated) [4]: 1.5
- Amino acid concentration ratio (treated/untreated) [5]: 1.2
- Occurrence (%) of water-soaked symptom (Cherry (Sato Nishiki)): 7%
